Several values for one entry are separate records, joined by “and”; a condition that tells them apart may be missing. Identical values can stand only once.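 1) Cells in 96-well plates. 2) Compound, 48 h, 5 concentrations. 3) Linear interpolation between surrounding doses. 4) Unreached endpoint = highest concentration. Abbreviation: GI50, concentration required for 50% inhibition of growth. TGI marks complete inhibition of growth.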
Experiments:
Assay in all cases: growth of human tumour cells (NCI), 48 h
[1] = test system: COLO 205 colon
[2] = test system: IGROV1 ovarian
[3] = test system: RPMI-8226 leukemia
[4] = test system: SK-MEL-28 melanoma
[5] = test system: OVCAR-4 ovarian
[6] = test system: NCI-H460 lung
[7] = test system: NCI-H226 lung
[8] = test system: HOP-62 NSCLC
[9] = test system: A498 renal
[10] = test system: MOLT-4 leukemia

SMILES | GI50 [1] [µM] | TGI [1] | GI50 [2] [µM] | TGI [2] | GI50 [3] [µM] | TGI [3] | GI50 [4] [µM] | TGI [4] | TGI [5] | GI50 [6] [µM] | TGI [6] | TGI [7] [µM] | TGI [8] [µM] | GI50 [9] [µM] | TGI [9] | GI50 [10] [µM] | TGI [10] | GI50 [5] [µM] | GI50 [7] [µM] | GI50 [8] [µM]
COc1cc2c(cc1OCCN1C(=O)c3cccc4cccc(c34)C1=O)N=C[C@@H]1CCCN1C2=O | 14.9 | 15.1 µM and 30.6 µM | 12.4 | 11.6 µM and 25.6 µM | 26 | 32 µM and > 100 µM | 19.7 | 16.3 µM and 49.3 µM | 50 µM and 39 µM | 15.5 | 13.9 µM and 29.9 µM | 32.4 | 47.5 | 19.6 | 16.6 µM and 42.8 µM | 42.2 | 11 µM and > 100 µM |  |  | 
CC(=O)OC1CC(C)c2c1ncnc2N1CCN(C(=O)OC(C)(C)C)CC1 (configuration not stated) | 38.5 | > 100 µM | 92.5 | > 100 µM | 35.1 | > 100 µM | 72.9 | > 100 µM | > 100 µM | 34.7 | > 100 µM | > 100 | > 100 | 37.8 | > 100 µM | 37.2 | > 100 µM | 63.6 | 63.9 | 45.4
CN([N-]C(=O)CC(=O)[N-]N(C)C(=S)c1ccccc1)C(=S)c1ccccc1.[Cu+2] | < 0.01 | 0.0256 µM | < 0.01 | 0.0406 µM | 0.0284 | 0.224 µM | 0.035 | 0.127 µM | 0.0619 µM | 0.0227 | 0.14 µM | 0.467 | 0.275 | 0.0346 | 0.146 µM | < 0.0108 | 0.22 µM | < 0.01 | 0.183 | 0.134
COc1ccc(S(=O)(=O)N2CCCCC2)cc1NC(=O)c1[nH]c(C)c2c1CCCCC2=O | 1.71 | 26.4 µM | 1.45 | 44.3 µM | 1.46 | 32.4 µM | 2.72 | > 100 µM | > 100 µM | 4.01 | > 100 µM | 34.7 | > 100 | 1.08 | 3.98 µM | 4.31 | > 100 µM | 2.11 | 1.27 | 0.904
COc1cc(C)c(N(C)C(=O)CN(C)C)cc1Nc1nc(Nc2cccc(F)c2C(N)=O)c2cc[nH]c2n1 | 5.63 | > 25 µM | > 25 | > 25 µM | > 22 | > 25 µM | > 25 | > 25 µM | > 25 µM | > 23.2 | > 25 µM | > 25 | > 25 | > 13.9 | > 25 µM | > 21.9 | > 25 µM | > 25 | > 24 | > 25
Cc1cc(C)c(S(=O)(=O)Oc2ccccc2[N+](=O)[O-])c(C)c1 | 2.9 | 12.9 µM | 2.68 | > 100 µM | 2.54 | > 100 µM | 5.46 | > 100 µM | > 100 µM | 2.4 | > 100 µM | > 100 | > 100 | 1.21 | 12.5 µM | 1.39 | > 100 µM | > 25.1 | 10.6 | 3.33
c1ccc2c(c1)[Se]c1ccccc1[Se]2 |  | > 100 µM |  | > 100 µM |  | > 100 µM |  | > 100 µM | 67.1 µM |  | > 100 µM | > 100 | > 100 |  | > 100 µM |  | > 100 µM |  |  | 
COC(=O)/C=C\C1C(C(=O)OC)C2(C(=O)OC)CCC1(C(=O)OC)N2 (configuration not stated) |  | 13.5 µM |  | > 58.1 µM |  | 26.4 µM |  | 26.4 µM | 34.5 µM |  | 42.5 µM | 36.6 | 34.1 |  | 32.9 µM |  | 14.7 µM |  |  | 
